The target of assay [1] is T1, Phosphodiesterase 4 (Homo sapiens, UniProt P27815+Q08499+Q07343+Q08493). Kind of assay: Inhibition of PDE4. Format: protein assay.
In assay [2] the target is T1, Phosphodiesterase 4. Kind of assay: Inhibition of rolipram binding. The assay is classed as protein assay.
The target in assay [3] is T1, Phosphodiesterase 4. Put plainly: Relative inhibition of PDE4 activity and rolipram binding to PDE4. Format: protein assay.
For another assay, the system named is Mustela putorius furo. Kind of assay: Emetic effect in ferrets on oral administration at 10 mg/kg (No effect). Format: functional, organism-based. On the set-up: dose 10 mg/kg.
The subject of assay [4] is Cavia porcellus. Kind of assay: Inhibition of eosinophil recruitment in guinea pig lung asthma model at 10 mg/kg oral dose. Format: functional.
The test system of assay [5] is Cavia porcellus. Put plainly: Inhibition of eosinophil recruitment in guinea pig lung asthma model at 30 mg/kg oral dose. The assay is classed as functional.
Assay [6] deals with T1, Phosphodiesterase 4. Put plainly: Inhibition of rolipram binding to PDE4. Format: protein assay.
Assay [7] relates to Cavia porcellus. Kind of assay: Inhibition of eosinophil recruitment in guinea pig lung asthma model at 10 mg/kg. Format: functional.

Active and inactive are the calls of the source. The calls are words filed in the database; no cut-off is given here.

As to `CSc1ccccc1-n1c(=O)n(Cc2ccccc2)c(=O)c2[nH]cnc21`, the half-maximal inhibitory concentration (IC50) (as a rule, the concentration that inhibits the measured activity by half) against Phosphodiesterase 4 [1] amounted to 20 µM.

As for `Nc1cccc(-n2c(=O)n(Cc3ccccc3)c(=O)c3[nH]cnc32)c1`, the results for the IC50 on Phosphodiesterase 4 [2] and against Phosphodiesterase 4 [1] were 0.32 µM and 11 µM, respectively. The Ratio at Phosphodiesterase 4 [3] was 34.

`C[S+]([O-])c1ccccc1-n1c(=O)n(Cc2ccccc2)c(=O)c2[nH]cnc21` (centres undefined): the 50% inhibitory concentration (IC50) against Phosphodiesterase 4 [1] was found to be 100 µM.

Regarding `Cc1ccccc1-n1c(=O)n(Cc2cccs2)c(=O)c2[nH]cnc21`, the IC50 was 1.02 µM at Phosphodiesterase 4 [2] and 4.2 µM on Phosphodiesterase 4 [1]. In addition, the Ratio at Phosphodiesterase 4 [3] stood at 4.1. Besides, the result with Mustela putorius furo was inactive. Further, at 10 mg/kg the inhibition in vivo in the assay on Cavia porcellus [4] was 56%. Also, the inhibition in vivo (as a rule, how much of the control response was suppressed) at 30 mg/kg in the assay with Cavia porcellus [5] stood at 70%.

On to `O=c1c2[nH]cnc2n(-c2cccc(Cl)c2)c(=O)n1Cc1ccccc1`, for which the Ratio at Phosphodiesterase 4 [3] is 156. For the same compound, the IC50 was found to be 6.55 µM at Phosphodiesterase 4 [1] and 0.042 µM at Phosphodiesterase 4 [6].

On to `O=C(O)c1cccc(-n2c(=O)n(Cc3ccccc3)c(=O)c3[nH]cnc32)c1`, for which, on Phosphodiesterase 4 [1], the IC50 stood at 110 µM.

`COC(=O)c1cccc(-n2c(=O)n(Cc3ccccc3)c(=O)c3[nH]cnc32)c1`: the half-maximal inhibitory concentration (IC50) on Phosphodiesterase 4 [2] came out at 0.009 µM; on Phosphodiesterase 4 [1], 4.08 µM. Moreover, the Ratio at Phosphodiesterase 4 [3] was determined as 453.

Take `CC(C)(C)c1ccccc1-n1c(=O)n(Cc2ccccc2)c(=O)c2[nH]cnc21`: the IC50 on Phosphodiesterase 4 [1] is above 20 µM.

In the case of `COc1ccc(C2CNC(=O)C2)cc1OC1CCCC1` (centres undefined) [ROLIPRAM], at 10 mg/kg the inhibition in vivo in the assay on Cavia porcellus [7] was 48%.

`O=c1c2[nH]cnc2n(-c2ccccc2C(F)(F)F)c(=O)n1Cc1ccccc1` returned an IC50 at Phosphodiesterase 4 [1] of 20 µM.

Regarding `COc1cccc(-n2c(=O)n(Cc3ccccc3)c(=O)c3[nH]cnc32)c1`, the results for the concentration for half-maximal inhibition (IC50) at Phosphodiesterase 4 [2] and on Phosphodiesterase 4 [1] were 0.017 µM and 6.01 µM, respectively. At Phosphodiesterase 4 [3], the Ratio amounted to 353.

Take `O=c1c2[nH]cnc2n(-c2ccccc2F)c(=O)n1Cc1ccccc1`: the IC50 was 0.22 µM at Phosphodiesterase 4 [2] and 2.4 µM at Phosphodiesterase 4 [1]. The Ratio at Phosphodiesterase 4 [3] was found to be 10.9.

With `Cc1ccccc1-n1c(=O)n(Cc2ccco2)c(=O)c2[nH]cnc21`, the values for the half-inhibitory concentration (IC50) on Phosphodiesterase 4 [2] and at Phosphodiesterase 4 [1] were 1.1 µM and 11.95 µM, respectively. The Ratio at Phosphodiesterase 4 [3] came out at 10.9.

Turning to `C[S+]([O-])c1cccc(-n2c(=O)n(Cc3ccccc3)c(=O)c3[nH]cnc32)c1` (centres undefined), the figures for the concentration for half-maximal inhibition (IC50) at Phosphodiesterase 4 [2] and against Phosphodiesterase 4 [1] were 1.6 µM and 56 µM, respectively. Further, at Phosphodiesterase 4 [3], the Ratio was found to be 35.

As for `Cc1ccccc1-n1c(=O)n(Cc2ccccc2)c(=O)c2[nH]cnc21`, the 50% inhibitory concentration (IC50) came out at 0.67 µM on Phosphodiesterase 4 [2] and 7.97 µM on Phosphodiesterase 4 [1]. The Ratio at Phosphodiesterase 4 [3] is 11.9.

As for `O=c1c2[nH]cnc2n(-c2ccccc2)c(=O)n1Cc1ccccc1`, the results for the IC50 on Phosphodiesterase 4 [2] and against Phosphodiesterase 4 [1] were 0.08 µM and 4.8 µM, respectively. For the same compound, the Ratio on Phosphodiesterase 4 [3] is 60.
